From US20230123334A1, “AMINO LIPID COMPOUND, PREPARATION METHOD THEREFOR, AND APPLICATION THEREOF” (SHENZHEN SHENXIN BIOTECHNOLOGY CO., LTD., priority 2020, published 2023)

Tested on: HEK293 cells
Assay: Preliminary screening as DNA vectors, GFP transfection of HEK293 cells
Type: cell-based
Conditions: amino lipid/DOPE liposome with 75 ng plasmid DNA (psin-EGFP-IRES-Puro); number of GFP-expressing cells divided by total nuclei (Hoechst)
Protocol: Cell line: HEK293 cells (ATCC CRL-1573™)
Medium: DMEM supplemented with 10% fetal bovine serum (Invitrogen)
Mode of screening: cell transfection on 96-well plates
Detection (readout): percentage of the number of GFP fluorescent cells relative to the total number of cells (the total number of cells was measured using nucleus dye Hoechst—see FIG. 2). Lipofectamine2000 (Invitrogen) was used as positive control, according to the manufacturer's instructions.
Method: an 8-channel pipette was used for sample addition. The contents shown were for a single well of a 96-well flat plate.
1. The compound (0.01 mmol) prepared in Example 1 was dissolved in 1 mL of anhydrous ethanol. After ultrasonically dissolved, 10 μL of the resultant amino lipid solution in ethanol was taken and mixed with 5 μL of DOPE solution in ethanol (0.01 m), and then to the obtained mixture was added 35 μL of 0.2M sodium acetate buffer (pH 5.6), and 50 μL of liposome solution was prepared by vortex at a constant rotating speed for 30 s. 4 μL was taken from the 50 μL liposome solution and added to 46 μL of 0.02M sodium acetate buffer (pH 5.6), and the final liposome solution was formed by vortex at a constant rotating speed for 30 s. 5 μL was taken from the final liposome solution and mixed with 75 ng plasmid DNA (psin-EGFP-IRES-Puro, Clontech) dissolved in 5 μL of 0.02 M sodium acetate buffer, and was allowed to stay at room temperature for 30 min to form a lipid/DNA transfection complex.
2. 10 μL of the lipid/DNA transfection complex was incubated at room temperature for 30 min, followed by addition of 90 μL of fresh resuspended cells (3-5×10^4 cells) and mixing with a pipette. 100 μL of cells+lipid/DNA complex was transferred to separate wells of a 96-well culture plate immediately, and placed in an incubator containing 5% CO2 at 37° C.
3. Hoechst33258 (Invitrogen) was added at a final concentration of 0.2 μg/mL to the cells 20 to 24 hours after initial cell transfection, and cultured in darkness at 37° C. for 15 min. Afterwards, the cells were washed once with a PBS solution, and then added with medium for culture for 20 to 24 h.
4. The cells were placed in a high-throughput confocal microscope (Molecular Devices ImageXpress), and four visual fields of the image of the cells were captured for each well, and images at three laser wavelengths were captured for each sample: bright field images of cells (FIG. 2(a) and FIG. 2(b)), Hoechst-staining images showing total nuclei (FIG. 2(c) and FIG. 2(d)) and GFP images showing success in transfection with the plasmid DNA and the expression of GFP (FIG. 2(e) and FIG. 2(f)). MetaXpress software was used to separately count the cells in the Hoechst-staining images and GFP images, and then the number of cells expressing GFP was divided by the total number of nuclei to give the absolute cell transfection efficiency. The absolute transfection efficiency was calculated as follows: […]

Structure (SMILES) | Absolute DNA transfection efficiency in HEK293 cells
CCCCCCCCCCCCNc1nc(NCCN2CCCCC2)nc(SCCCCCC)n1 [S6N12 D4] | 2.0%
CCCCCCCCCCCCNc1nc(NCCN2CCN(C)CC2)nc(SCCCCCC)n1 [S6N12 D5] | 25.9%
CCCCCCCCCCCCNc1nc(NCCCN(C)C)nc(SCCCCCC)n1 [S6N12 D6] | 6.0%
CCCCCCCCCCCCNc1nc(NCCN(CC)CC)nc(SCCCCCC)n1 [S6N12 D7] | 2.2%
CCCCCCCCCCCCNc1nc(NCCCN2CCOCC2)nc(SCCCCCC)n1 [S6N12 D8] | 4.0%
CCCCCCCCCCCCNc1nc(NCCCN2CCN(C)CC2)nc(SCCCCCC)n1 [S6N12 D9] | 38.8%
CCCCCCCCCCCCNc1nc(NCC2CCN(C)CC2)nc(SCCCCCC)n1 [S6N12 D10] | 21.3%
CCCCCCCCCCCCCNc1nc(NCCN(C)C)nc(SCCCCCC)n1 [S6N13 D1] | 6.5%
CCCCCCCCCCCCCNc1nc(NCCN2CCOCC2)nc(SCCCCCC)n1 [S6N13 D2] | 1.9%
CCCCCCCCCCCCCNc1nc(NCCN2CCCC2)nc(SCCCCCC)n1 [S6N13 D3] | 9.9%
CCCCCCCCCCCCCNc1nc(NCCN2CCCCC2)nc(SCCCCCC)n1 [S6N13 D4] | 2.1%
CCCCCCCCCCCCCNc1nc(NCCN2CCN(C)CC2)nc(SCCCCCC)n1 [S6N13 D5] | 24.1%
CCCCCCCCCCCCCNc1nc(NCCCN(C)C)nc(SCCCCCC)n1 [S6N13 D6] | 12.9%
CCCCCCCCCCCCCNc1nc(NCCN(CC)CC)nc(SCCCCCC)n1 [S6N13 D7] | 2.0%
CCCCCCCCCCCCCNc1nc(NCCCN2CCOCC2)nc(SCCCCCC)n1 [S6N13 D8] | 4.9%
CCCCCCCCCCCCCNc1nc(NCCCN2CCN(C)CC2)nc(SCCCCCC)n1 [S6N13 D9] | 38.3%
CCCCCCCCCCCCCNc1nc(NCC2CCN(C)CC2)nc(SCCCCCC)n1 [S6N13 D10] | 51.6%
CCCCCCCCCCCCCCCNc1nc(NCCN(C)C)nc(SCCCCCC)n1 [S6N15 D1] | 5.8%
CCCCCCCCCCCCCCCNc1nc(NCCN2CCOCC2)nc(SCCCCCC)n1 [S6N15 D2] | 2.0%

Structure (SMILES) | Absolute DNA transfection efficiency in HEK293 cells
CCCCCCCCCCCCCCCNc1nc(NCCN2CCCC2)nc(SCCCCCC)n1 [S6N15 D3] | 15.9%
CCCCCCCCCCCCCCCNc1nc(NCCN2CCCCC2)nc(SCCCCCC)n1 [S6N15 D4] | 1.7%
CCCCCCCCCCCCCCCNc1nc(NCCN2CCN(C)CC2)nc(SCCCCCC)n1 [S6N15 D5] | 22.3%
CCCCCCCCCCCCCCCNc1nc(NCCCN(C)C)nc(SCCCCCC)n1 [S6N15 D6] | 25.9%
CCCCCCCCCCCCCCCNc1nc(NCCN(CC)CC)nc(SCCCCCC)n1 [S6N15 D7] | 1.2%
CCCCCCCCCCCCCCCNc1nc(NCCCN2CCOCC2)nc(SCCCCCC)n1 [S6N15 D8] | 3.3%
CCCCCCCCCCCCCCCNc1nc(NCCCN2CCN(C)CC2)nc(SCCCCCC)n1 [S6N15 D9] | 28.4%
CCCCCCCCCCCCCCCNc1nc(NCC2CCN(C)CC2)nc(SCCCCCC)n1 [S6N15 D10] | 31.1%
CCCCCCCCCCCCCCCCNc1nc(NCCN(C)C)nc(SCCCCCC)n1 [S6N16 D1] | 6.6%
CCCCCCCCCCCCCCCCNc1nc(NCCN2CCOCC2)nc(SCCCCCC)n1 [S6N16 D2] | 1.4%
CCCCCCCCCCCCCCCCNc1nc(NCCN2CCCC2)nc(SCCCCCC)n1 [S6N16 D3] | 19.8%
CCCCCCCCCCCCCCCCNc1nc(NCCN2CCCCC2)nc(SCCCCCC)n1 [S6N16 D4] | 2.4%
CCCCCCCCCCCCCCCCNc1nc(NCCN2CCN(C)CC2)nc(SCCCCCC)n1 [S6N16 D5] | 19.6%
CCCCCCCCCCCCCCCCNc1nc(NCCCN(C)C)nc(SCCCCCC)n1 [S6N16 D6] | 22.8%
CCCCCCCCCCCCCCCCNc1nc(NCCN(CC)CC)nc(SCCCCCC)n1 [S6N16 D7] | 2.6%
CCCCCCCCCCCCCCCCNc1nc(NCCCN2CCOCC2)nc(SCCCCCC)n1 [S6N16 D8] | 4.2%
CCCCCCCCCCCCCCCCNc1nc(NCCCN2CCN(C)CC2)nc(SCCCCCC)n1 [S6N16 D9] | 20.6%
CCCCCCCCCCCCCCCCNc1nc(NCC2CCN(C)CC2)nc(SCCCCCC)n1 [S6N16 D10] | 19.7%
CCCCCCCCCCCCCCCCCCNc1nc(NCCN(C)C)nc(SCCCCCC)n1 [S6N18 D1] | 21.0%

Structure (SMILES) | Absolute DNA transfection efficiency in HEK293 cells
CCCCCCCCCCCCCCCCCCNc1nc(NCCN2CCOCC2)nc(SCCCCCC)n1 [S6N18 D2] | 2.5%
CCCCCCCCCCCCCCCCCCNc1nc(NCCN2CCCC2)nc(SCCCCCC)n1 [S6N18 D3] | 21.9%
CCCCCCCCCCCCCCCCCCNc1nc(NCCN2CCCCC2)nc(SCCCCCC)n1 [S6N18 D4] | 3.5%
CCCCCCCCCCCCCCCCCCNc1nc(NCCN2CCN(C)CC2)nc(SCCCCCC)n1 [S6N18 D5] | 15.4%
CCCCCCCCCCCCCCCCCCNc1nc(NCCCN(C)C)nc(SCCCCCC)n1 [S6N18 D6] | 21.8%
CCCCCCCCCCCCCCCCCCNc1nc(NCCN(CC)CC)nc(SCCCCCC)n1 [S6N18 D7] | 5.2%
CCCCCCCCCCCCCCCCCCNc1nc(NCCCN2CCOCC2)nc(SCCCCCC)n1 [S6N18 D8] | 8.1%
CCCCCCCCCCCCCCCCCCNc1nc(NCCCN2CCN(C)CC2)nc(SCCCCCC)n1 [S6N18 D9] | 14.1%
CCCCCCCCCCCCCCCCCCNc1nc(NCC2CCN(C)CC2)nc(SCCCCCC)n1 [S6N18 D10] | 13.0%
CCCCCCSc1nc(NCCN(C)C)nc(SCCCCCC)n1 [S6S6 D1] | 1.1%
CCCCCCSc1nc(NCCN2CCOCC2)nc(SCCCCCC)n1 [S6S6 D2] | 0.4%
CCCCCCSc1nc(NCCN2CCCC2)nc(SCCCCCC)n1 [S6S6 D3] | 4.4%
CCCCCCSc1nc(NCCN2CCCCC2)nc(SCCCCCC)n1 [S6S6 D4] | 1.4%
CCCCCCSc1nc(NCCN2CCN(C)CC2)nc(SCCCCCC)n1 [S6S6 D5] | 9.1%
CCCCCCSc1nc(NCCCN(C)C)nc(SCCCCCC)n1 [S6S6 D6] | 12.5%
CCCCCCSc1nc(NCCN(CC)CC)nc(SCCCCCC)n1 [S6S6 D7] | 23.0%
CCCCCCSc1nc(NCCCN2CCOCC2)nc(SCCCCCC)n1 [S6S6 D8] | 0.8%
CCCCCCSc1nc(NCCCN2CCN(C)CC2)nc(SCCCCCC)n1 [S6S6 D9] | 7.6%
CCCCCCSc1nc(NCC2CCN(C)CC2)nc(SCCCCCC)n1 [S6S6 D10] | 21.6%
